Measured values published in patent US20160047819A1, “METHOD FOR DIAGNOSING VAGINAL INFECTIONS” (priority 2013, published 2016).

Legend:
Experiment in all cases: Real-time PCR of vaginal bacterial communities
Assay type in all cases: in vivo
Mobiluncus = system: Mobiluncus
Method: (§1) The qPCR real-time quantitative PCR was used for the identification and quantification of bacterial groups involved in the imbalance that effects the vaginal microbiota, in particular to determine the concentrations of the principal bacterial groups which are known to be affected in the presence of BV such as Lactobacillus, Atopobium, Gardnerella vaginalis, Prevotella, Veillonella, Mobiluncus and Mycoplasma hominis.
(§2) qPCR was performed on DNA samples extracted from CVF of healthy women (H), women affected by BV at V1 (BV), women who were in remission after rifaximin treatment at V3 (R), and women who were not in remission after antibiotic or placebo treatment at V3 (N).
(§3) A total of 80 Belgian pre-menopausal, non-pregnant women, aged between 18 and 50 years were included in the present study. At the screening visit (V1) diagnosis of health or BV was made using both Amsel's criteria and Gram stain Nugent scoring. Patients with Nugent score >3 and positive for at least 3 of 4 Amsel's criteria were considered positive for BV. According to this clinical evaluation, women were split into 2 groups: healthy subjects (H), who had no signs of vaginal tract infection (n=41) and patients affected by BV (n=39).
(§4) Patients who were diagnosed for BV at the study visit V1 were included in a multicentre, double-blind, randomised, placebo-controlled study (EudraCT: 2009-011826-32), that was performed to compare the efficacy of different doses of rifaximin vaginal tablets versus placebo for the treatment of BV. The patients underwent a randomization visit and were distributed into 4 treatment groups: group A received 100 mg rifaximin vaginal tablet once daily for 5 days (n=10), group B received 25 mg rifaximin vaginal tablet once daily for 5 days (n=10), group C received 100 mg rifaximin vaginal tablet once daily for the first 2 days and placebo vaginal tablet for the remaining 3 days (n=9), group D received placebo vaginal tablet once daily for 5 days (n=10). Study medication was administered intra-vaginally at bedtime. After 7 to 10 days from the end of the therapy a follow-up visit (V3) was performed. Remission was evaluated at V3 according to Amsel's criteria (<3) and Gram stain Nugent score (≦3) (Table 1).
(§5) Standardized vaginal rinsings with 2 mL of saline were collected for analysis at V1 and V3 by flushing and re-aspirating the fluid through a 22 Gauge needle in the left, central and right upper vaginal vaults. The vaginal rinsings were subsequently stored at −80° C. until use.
(§6) One mL of each vaginal rinsing was centrifuged at 9500 g for 15 min to separate the pellet, which was processed for bacterial DNA isolation, from the supernatant, used for protein extraction.
(§7) DNA amount was quantified using NanoDrop ND-1000 (NanoDrop® Technologies, Wilmington, Del.).
(§8) Real-time PCR was performed on DNA samples extracted from cervicovaginal fluid (CVF) collected from 41 healthy women (H) and 39 BV-affected women before (BV) and after rifaximin/placebo treatment R (11 women in remission) and N (28 women not in remission).
(§9) Specific primer sets targeted to 16S rRNA gene or 16S-23S rRNA spacer region were used to quantify the following genus or species: Lactobacillus, Gardnerella vaginalis, Atopobium, Prevotella, Veillonella, Mycoplasma hominis and Mobiluncus.

Atopobium = system: Atopobium
Method: as §1, §2, §3, §4, §5, §6, §7, §8, §9

Veillonella = system: Veillonella
Method: as §1, §2, §3, §4, §5, §6, §7, §8, §9

Prevotella = system: Prevotella
Method: as §1, §2, §3, §4, §5, §6, §7, §8, §9

Lactobacillus = system: Lactobacillus
Method: as §1, §2, §3, §4, §5, §6, §7, §8, §9

Mycoplasma hominis = system: Mycoplasma hominis
Method: as §1, §2, §3, §4, §5, §6, §7, §8, §9

Gardnerella vaginalis = system: Gardnerella vaginalis
Method: as §1, §2, §3, §4, §5, §6, §7, §8, §9

[1] = R group: women in remission after rifaximin treatment at V3
[2] = R group: women in remission after rifaximin treatment at V3, qPCR

## CO[C@H]1/C=C/O[C@@]2(C)Oc3c(C)c(O)c4c(O)c(c5c(nc6cc(C)ccn65)c4c3C2=O)NC(=O)/C(C)=C\C=C\[C@H](C)[C@H](O)[C@@H](C)[C@@H](O)[C@@H](C)[C@H](OC(C)=O)[C@@H]1C [rifaximin]
Mobiluncus; R group at V3
  Mobiluncus quantification in R group: not quantified in any of the women
Mobiluncus; [1]
  Target DNA/genomic vaginal DNA (median), Mobiluncus: 0.0 ng/µg
Mobiluncus; [2]
  % of women hosting Mobiluncus: 0.0%
Atopobium; R group at V3 vs BV group, still higher than H group
  Atopobium concentration in R group compared to BV group: significantly lower
Atopobium; [1]
  Target DNA/genomic vaginal DNA (median), Atopobium: 4.86 ng/µg
Atopobium; [2]
  % of women hosting Atopobium: 100%
Veillonella; R group at V3
  Veillonella quantification in R group: not quantified in any of the women
Veillonella; [1]
  Target DNA/genomic vaginal DNA (median), Veillonella: 0.0 ng/µg
Veillonella; [2]
  % of women hosting Veillonella: 0.0%
Prevotella; R group at V3
  Prevotella concentration in R group: very low concentrations
Prevotella; [1]
  Target DNA/genomic vaginal DNA (median), Prevotella: 0.0451 ng/µg
Prevotella; [2]
  % of women hosting Prevotella: 81.8%
Lactobacillus; R group after antibiotic treatment vs BV group, higher
  median value of Lactobacilli in R group relative to BV group: about 10 times
Lactobacillus; [1]
  Target DNA/genomic vaginal DNA (median), Lactobacillus: 46.3 ng/µg
Lactobacillus; [2]
  % of women hosting Lactobacillus: 100%
Mycoplasma hominis; R group at V3 vs BV group
  M. hominis in R group compared to BV group: significant reduction
Mycoplasma hominis; [1]
  Target DNA/genomic vaginal DNA (median), Mycoplasma hominis: 0.00156 ng/µg
Mycoplasma hominis; [2]
  % of women hosting Mycoplasma hominis: 63.6%
Gardnerella vaginalis; R group at V3
  G. vaginalis concentration in R group: very low concentrations
Gardnerella vaginalis; [1]
  Target DNA/genomic vaginal DNA (median), G. vaginalis: 0.0 ng/µg
Gardnerella vaginalis; [2]
  % of women hosting Gardnerella vaginalis: 45.5%
